Results taken from US20190307754A1, “PDE9 INHIBITORS FOR TREATMENT OF PERIPHERAL DISEASES” (IMARA, INC., priority 2016, published 2019).
Values joined by “and” are separate entries in the source; they are usually repeats but may differ in a detail not shown here. Equal entries are not always repeated.

Assays:
[1] = test system: C57Bl/6J mice; experiment: Locomotor activity and contextual fear conditioning in C57Bl/6J mice; format: in vivo; conditions: 10 or 30 mg/kg/day, gavage, 5 days
Protocol: (§1) The exposure of both compounds was also evaluated in the plasma, brain, and eye. […] During the treatment period all animals were assessed for contextual fear conditioning and a subset of 7 animals per group was evaluated for locomotor activity. On Day 5, plasma, brain, and eye tissue were collected 30 minutes after dosing from 3 animals per treated group to measure concentrations of test item.

[2] = Blood Brain Barrier penetration (brain-to-plasma distribution); format: in vivo; conditions: male CD mice, 10 mg/kg subcutaneous
Protocol: Male CD mice (20-24 g) were housed pair-wise with free access to food and water for an acclimatization period of 3-7 days before initiation of experiments. Prior to dosing the animals were fasted overnight. During testing, mice were kept in individual cages. The brain-to-plasma distribution was assessed 30 minutes and 2 hours after subcutaneous administration of the test compound at a dose of 10 mg/kg (n=3 at each time point). The dose volume was 10 ml/kg using appropriate vehicle to solubilize each test compound. At the time of sampling, animals were anesthetized with isoflurane and a systemic blood sample collected by cardiac puncture into vacutainers containing sodium heparin as anti-coagulant. The blood was centrifuged at 3500 rpm for 10 minutes at 4° C. to obtain plasma. Following decapitation, brains were dissected out and transferred to pre-weighed vessels followed by tissue weights determination. Plasma and brains were stored at −80° C. until quantitative bioanalysis by LC-MS/MS. Results are expressed as ng/ml for plasma and ng/g for brain samples.

[3] = Plasma, brain and eye exposure in C57Bl/6J mice; format: in vivo; conditions: for concentration at 30 min: male, C57Bl/6J, mouse, plasma, oral, gavage, Day 5, 30 minutes after dosing
Protocol: as §1

[4] = test system: CYP2B6; experiment: CYP induction in human hepatocytes, CYP2B6
[5] = test system: rat; experiment: in vivo
Protocol: (§2) In a 14-day repeat-dose toxicity study in rats, Compound P3.1 was orally administered (gavage) at doses of 0 (vehicle), 50, 200, and 400 mg/kg/day.

[6] = in vivo; conditions: rat
Protocol: as §2

[7] = molecular target: PDE9 (Homo sapiens, UniProt O76083); experiment: PDE9 inhibition assay; format: biochemical
Protocol: Reactions are initiated by addition of the cyclic nucleotide substrate, and reactions are allowed to proceed for one hr at room temperature before being terminated through mixing with 15 uL 8 mg/mL yttrium silicate SPA beads (Amersham).
Following a 1 hour incubation the reactions were terminated by addition of 15 uL 8 mg/mL yttrium silicate SPA beads (Amersham). […] IC50 values were calculated by nonlinear regression using XLfit (IDBS).

[8] = test system: dog; experiment: Fourteen-day repeat-dose toxicity study in beagle dogs; format: in vivo
Protocol: (§3) In a GLP 14-day repeat-dose toxicity study in dogs, Compound P3.1 was orally administered at doses of 0, 10, 35, or 75 mg/kg/day. […] The no-observed-adverse-effect level (NOAEL) was considered to be 35 mg/kg/day in males and females.

[9] = as above; format: in vivo, dog; conditions: beagle, in vivo, dog; for NOAEL at 14 days: both sexes, oral, males and females, 14-day; for Cmax / AUC(0-t): po; for AUC(0-t): read-out: AUC0-24
Protocol: as §3

[10] = Plasma protein binding, dog; format: in vitro ADME; conditions: read-out: mean plasma fraction bound (converted)
[11] = test system: TNF-α activated endothelium; experiment: Micro-channel assay of platelet, PMN and RBC binding (FIG. 10); format: cell-based, human; conditions: bound cells at 30 min
Protocol: In another assay, using the same method, the reduction of PMN and RBC bindings to TNF-α activated endothelium in a micro channel well was confirmed. Platelet, PMN, and RBC in blood samples from 5 healthy normal volunteers (donors) were labelled with fluorescent dyes. The blood samples were incubated with Compound P3.1 for 2 hours or 3 hours, or HU for 3 hours, prior to running them on micro channels that were previously coated with endothelial cells activated with TNF-α. The % of bound cells was quantified at 30 min. Results are shown in FIG. 10A, FIG. 10B, and FIG. 10C.

[12] = test system: TNF-α activated human endothelial cells; experiment: Micro-channel PMN adhesion assay under flow (FIG. 9); format: cell-based
Text: In this study, the effects of Compound P3.1 on PMN adhesion to TNF-α activated human endothelial cell monolayers under flow conditions are investigated. It has been validated in vitro dynamic assay mimics neutrophil recruitment to endothelial cell monolayers under inflammatory conditions (TNF-α activation). In this assay, both control and sickle PMNs adhere to endothelial cells but to different degrees, reflecting in vivo conditions. The human dermal microvascular endothelial cell line HMEC-1 is used in this approach. The potential inhibitory effect of Compound P3.1 is tested in parallel and compared with the effect of HU and other PDE9 inhibitors.
In a first step, the effects of 1 uM Compound P3.1 and 10 uM HU were tested by incubating blood samples from healthy volunteers (n=3-6) (i.e., donors or donor cells) with these molecules.
Adhesion of PMNs from healthy volunteers was assessed under flow conditions, mimicking blood flow, in micro channels (Venaflux, Cellix, Ireland) coated with endothelial cell monolayers cultivated under inflammatory conditions. The adhesion assay was performed with whole fresh blood, previously incubated or not with Compound P3.1, to be closer to the physiological condition of circulation in a person, and to study the interaction between the different blood cells with PMNs.

[13] = female, 10 mg, females, 10 mg, Day 1
[14] = female, 10 mg, females, 10 mg, Day 14
[15] = female, 35 mg, females, 35 mg, Day 1
[16] = female, 35 mg, females, 35 mg, Day 14
[17] = female, 75 mg/kg/day, females, 75 mg, Day 1
[18] = female, 75 mg/kg/day, females, 75 mg, Day 14
[19] = male, 10 mg, males, 10 mg, Day 1
[20] = male, 10 mg, males, 10 mg, Day 14
[21] = male, 35 mg, males, 35 mg, Day 1
[22] = male, 35 mg, males, 35 mg, Day 14
[23] = male, 75 mg/kg/day, males, 75 mg, Day 1
[24] = male, 75 mg/kg/day, males, 75 mg, Day 14

Sequence of PDE9 (O76083 whole entry): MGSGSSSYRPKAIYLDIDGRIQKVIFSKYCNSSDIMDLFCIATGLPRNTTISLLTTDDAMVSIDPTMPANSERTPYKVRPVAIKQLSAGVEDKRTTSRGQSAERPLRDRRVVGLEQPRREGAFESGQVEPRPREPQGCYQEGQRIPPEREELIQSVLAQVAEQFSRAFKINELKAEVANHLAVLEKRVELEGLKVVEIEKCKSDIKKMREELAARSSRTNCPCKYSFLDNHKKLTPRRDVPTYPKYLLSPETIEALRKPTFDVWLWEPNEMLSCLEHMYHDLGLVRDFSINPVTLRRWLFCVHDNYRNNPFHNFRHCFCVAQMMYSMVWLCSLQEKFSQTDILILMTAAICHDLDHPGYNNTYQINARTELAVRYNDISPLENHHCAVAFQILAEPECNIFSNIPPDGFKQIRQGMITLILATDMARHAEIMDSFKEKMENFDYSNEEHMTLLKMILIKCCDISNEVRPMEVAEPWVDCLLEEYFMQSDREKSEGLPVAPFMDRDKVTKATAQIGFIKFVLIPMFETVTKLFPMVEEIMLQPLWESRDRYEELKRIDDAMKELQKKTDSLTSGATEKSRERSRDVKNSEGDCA

For `C[C@@H]1CN(Cc2ncccn2)C[C@H]1c1cn2c(C3CCOCC3)ncc2c(=O)[nH]1` (single isomer, unassigned) [Compound P3.1], the “locomotor activity or memory” value [1] was “no effect”, the “Plasma concentration after 30 minutes” value ([2]; 30 min) was 30 min.: 1620 ng/mL and the “Plasma concentration after 120 minutes” value ([2]; 120 min) was 120 min.: 226 ng/mL. The Kp at 0.5 h ([2]; mouse, brain, sc, 30 min, read-out: Brain/Plasma ratio after 30 minutes) was 0.04, the Kp at 2 h ([2]; mouse, brain/plasma, sc, 120 min, read-out: Brain/Plasma ratio after 120 minutes) was 0.03 and the “eye tissue level relative to AF27873” value ([3]; 10 and 30 mg/kg/day) was 3 fold lower. For the same compound, the concentration at 30 min ([3]; 10 mg/kg/day) was 3.84 µM, the concentration at 30 min ([3]; 30 mg/kg/day) was 9.91 µM and the “plasma to brain ratio” value ([3]; repeated administration) was “approximately 14”. The “induction of CYP2B6” value [4] was “no potential for induction”, the “exposure relative to anticipated efficacious dose” value [5] was greater than 10 fold and the exposure vs dose [5] was “increased proportionally with dose”. For the same compound, the “findings at highest dose” value ([5]; 400 mg/kg/day) was “reductions in body weight, weight gain, and food intake, and premature deaths”, the NOAEL at 14 days ([6]; female) was 50 mg/kg/day and 50 mg/kg and the NOAEL at 14 days ([6]; male) was 200 mg/kg/day and 200 mg/kg. The AUC(0-t) ([6]; 400 mg/kg/day, plasma exposure (AUC0-24)) was greater than 354000 ng·h/mL, the IC50 [7] was 49 nM and the deaths ([8]; dog, 10, 35, or 75 mg/kg/day, 14 days) was “No deaths were observed at any dose”. For the same compound, the findings ([8]; dog, 35 or 75 mg/kg/day, oral, 14 days) was “emesis, liquid/loose feces, reduced food intake, and losses in body weight in some individuals”, the “mean exposures vs dose” value ([8]; dog, Days 1 and 14) was “increased with dose in a broadly proportionate manner” and the NOAEL at 14 days ([9]; read-out: no-observed-adverse-effect level (NOAEL)) was 35 mg/kg/day. The NOAEL at 14 days ([9]; read-out: no-observed-adverse-effect-level (NOAEL)) was 35 mg/kg, the Cmax [9, 13] was 1970 ng/mL and the AUC(0-t) [9, 13] was 24800 ng·h/mL. For the same compound, the Cmax [9, 14] was 3780 ng/mL, the AUC(0-t) [9, 14] was 25400 ng·h/mL and the Cmax [9, 15] was 5180 ng/mL. The AUC(0-t) [9, 15] was 66700 ng·h/mL, the Cmax [9, 16] was 10000 ng/mL and the AUC(0-t) [9, 16] was 87900 ng·h/mL. The Cmax [9, 17] was 13200 ng/mL, the AUC(0-t) [9, 17] was 152000 ng·h/mL and the Cmax [9, 18] was 22100 ng/mL. For the same compound, the AUC(0-t) [9, 18] was 224000 ng·h/mL, the Cmax [9, 19] was 2730 ng/mL and the AUC(0-t) [9, 19] was 29700 ng·h/mL. For the same compound, the Cmax [9, 20] was 3120 ng/mL, the AUC(0-t) [9, 20] was 24100 ng·h/mL and the Cmax [9, 21] was 11200 ng/mL. The AUC(0-t) [9, 21] was 114000 ng·h/mL, the Cmax [9, 22] was 13100 ng/mL and the AUC(0-t) [9, 22] was 98600 ng·h/mL. For the same compound, the Cmax [9, 23] was 11000 ng/mL, the AUC(0-t) [9, 23] was 137000 ng·h/mL and the Cmax [9, 24] was 18300 ng/mL. The AUC(0-t) [9, 24] was 193000 ng·h/mL, the fraction unbound [10] was 0.771 and the platelet binding ([11]; Compound P3.1 2 or 3 hours, HU 3 hours) was “did not impact platelet binding”. For the same compound, the “PMN adhesion to endothelial cells” value ([11]; blood incubated 2 or 3 hours) was “reduced”, the “RBC adhesion to endothelial cells” value ([11]; blood incubated 2 or 3 hours) was “reduced” and the “adhesion of low-binding donor cells” value ([12]; 1 uM Compound P3.1, whole blood of healthy volunteers) was “no effect”. For the same compound, the “adhesion of high-binding donor cells” value ([12]; 1 uM Compound P3.1 or 10 uM HU, whole blood of healthy volunteers) was “reduced the adhesion of 3 of 4 high-binding donors”.
